Assay results reported in ChEMBL document CHEMBL4665641, “Lead optimization and efficacy evaluation of quinazoline-based BET family inhibitors for potential treatment of cancer and inflammatory diseases” (Bioorg Med Chem Lett, 2019).

Experiments:
[1] = target: T1, Bromodomain-containing protein 4 (Homo sapiens, UniProt O60885); experiment: Competitive binding affinity to human partial length BRD4 (BD1,2) (N44 to E460 residues) expressed in bacterial expression system by BROMOscan assay
Kasumi 1 [2] = experiment: Antitumor activity against human Kasumi-1 cells xenografted in CB17 SCID mouse assessed as tumor volume at 10 mg/kg, po QD for 25 days (reference value: 2189 +/- 604 mm3); type: functional; conditions: time 25 day
Kasumi 1 [3] = experiment: Antitumor activity against human Kasumi-1 cells xenografted in CB17 SCID mouse assessed as tumor weight at 10 mg/kg, po administered for 25 days (reference value: 2.57 +/- 0.27 g); type: functional; conditions: time 25 day
[4] = Drug uptake in tumor tissue of CB17 SCID mouse xenografted with human Kasumi-1 cells at 40 mg/kg, po QD for 25 days and measured after 24 hrs post last dose; type: ADME, organism-based, Neoplasm; conditions: time 25 day, read-out: Drug uptake
[5] = Toxicity in CB17 SCID mouse xenografted with human Kasumi-1 cells assessed body weight loss at 10 to 40 mg/kg, po QD for 25 days; type: organism-based; conditions: in vivo, 600 h, dose 10-40 mg/kg, time 25 day
[6] = Half life in CD-1 mouse at 2 mg/kg, iv; type: ADME, organism-based; conditions: in vivo
[7] = Cmax in CD-1 mouse at 10 mg/kg, po; type: ADME, organism-based; set-up: route oral, dose 10 mg/kg; conditions: CD-1, mouse, in vivo, read-out: Cmax
[8] = Plasma clearance in CD-1 mouse at 2 mg/kg, iv; type: ADME, organism-based
Kasumi 1 [9] = experiment: Antitumor activity against human Kasumi-1 cells xenografted in CB17 SCID mouse assessed as tumor weight at 40 mg/kg, po QD for 25 days (reference value: 2.57 +/-0.27 g); type: functional; conditions: time 25 day
[10] = Drug uptake in tumor tissue of CB17 SCID mouse xenografted with human Kasumi-1 cells at 10 mg/kg, po QD for 25 days and measured after 24 hrs post last dose; type: ADME, organism-based, Neoplasm; conditions: time 25 day, read-out: Drug uptake
Kasumi 1 [11] = experiment: Antitumor activity against human Kasumi-1 cells xenografted in CB17 SCID mouse assessed as inhibition of tumor growth at 40 mg/kg, po QD for 25 days; type: functional; conditions: Kasumi 1, po, 600 h, time 25 day, read-out: TGI
MV4-11 = experiment: Cytotoxicity against human MV4-11 cells assessed as inhibition of cell viability; type: functional, cell-based
Kasumi 1 [12] = experiment: Antitumor activity against human Kasumi-1 cells xenografted in CB17 SCID mouse assessed as inhibition of tumor growth at 10 mg/kg, po QD for 25 days; type: functional; conditions: Kasumi 1, po, 600 h, time 25 day, read-out: TGI
Kasumi 1 [13] = experiment: Antiproliferative activity against human Kasumi-1 cells after 72 hrs by Celltiter-Glo assay; type: functional, cell-based; conditions: Kasumi 1, 72 h
[14] = Half life in CD-1 mouse at 10 mg/kg, po; type: ADME, organism-based; conditions: in vivo
[15] = AUC(0 to infinity) in CD-1 mouse at 2 mg/kg, iv; type: ADME, organism-based; set-up: time infinity, route intravenous, dose 2 mg/kg; conditions: CD-1, mouse, in vivo
[16] = Volume of distribution at steady state in CD-1 mouse at 2 mg/kg, iv; type: ADME, organism-based; conditions: in vivo, read-out: Vdss
[17] = Stability in mouse liver microsomes assessed as half life; type: ADME, Microsome
[18] = Stability in human liver microsomes assessed as half life; type: ADME, Microsome
[19] = AUC(0 to infinity) in CD-1 mouse at 10 mg/kg, po; type: ADME, organism-based; set-up: route oral, time infinity, dose 10 mg/kg; conditions: in vivo; for AUC(0-inf): CD-1, mouse
Kasumi 1 [20] = experiment: Antitumor activity against human Kasumi-1 cells xenografted in CB17 SCID mouse assessed as tumor volume at 40 mg/kg, po QD for 25 days (reference value: 2189 +/- 604 mm3); type: functional; conditions: time 25 day
[21] = Stability in rat liver microsomes assessed as half life; type: ADME, Microsome
[22] = Cmax in CD-1 mouse at 2 mg/kg, iv measured after 5 mins; type: ADME, organism-based; set-up: route intravenous, dose 2 mg/kg; conditions: in vivo
[23] = target: T1, Bromodomain-containing protein 4; experiment: Inhibition of human full-length recombinant N-terminal His-tagged BRD4 (2 to 1362 residues) expressed in Sf9 cells using histone H4 peptide containing acetylated lysine residues as substrate preincubated with enzyme for 30 mins followed by incubation with substrate for 30 mins by Alphascreen assay […]
Kasumi 1 [24] = experiment: Antitumor activity against human Kasumi-1 cells xenografted in CB17 SCID mouse assessed as tumor weight at 10 mg/kg, po QD for 29 days (reference value: 2.1+/- 0.3 g); type: functional; conditions: time 29 day
Kasumi 1 [25] = experiment: Antitumor activity against human Kasumi-1 cells xenografted in CB17 SCID mouse assessed as tumor volume at 10 mg/kg, po QD for 29 days (reference value: 1734 +/- 220 mm3); type: functional; conditions: time 29 day
Kasumi 1 [26] = experiment: Antitumor activity against human Kasumi-1 cells xenografted in CB17 SCID mouse assessed as inhibition of tumor growth at 10 mg/kg, po QD for 29 days; type: functional; conditions: Kasumi 1, po, 696 h, time 29 day, read-out: TGI
[27] = Oral bioavailability in CD-1 mouse at 10 mg/kg; type: ADME, organism-based; conditions: CD-1, mouse, in vivo
[28] = Toxicity in CB17 SCID mouse xenografted with human Kasumi-1 cells assessed body weight loss at 40 mg/kg, po QD for 25 days; type: organism-based; conditions: in vivo, 600 h, time 25 day
Mus musculus [29] = experiment: (§1) Antiinflammatory activity in collagen/complete freund's adjuvant-induced arthritis DBA/1 mouse model assessed as MCP-1 level in rear right paw at 1 mg/kg, po administered via gavage starting from day 21 to day 41 post collagen/CFA challenge and measured on day 42 measured per mg protein (reference value: 126.24 pg); type: functional; conditions: time 21 day
[30] = Toxicity in collagen/CFA induced arthritis DBA/1 mouse model assessed as body weight loss at 1 mg/kg, po administered via gavage starting from day 21 to day 41 post collagen/CFA challenge and measured on day 0, 18, 21 followed by three times weekly up to 42 days; type: organism-based; conditions: in vivo, 504 h, time 21 day
Mus musculus [31] = experiment: as §1, with “IL-1 beta” for “MCP-1”, “3.15” for “126.24”; type: functional; conditions: time 21 day
Mus musculus [32] = experiment: as §1, with “TNF-alpha” for “MCP-1”, “0.88” for “126.24”; type: functional; conditions: time 21 day
Mus musculus [33] = experiment: as §1, with “VEGF” for “MCP-1”, “0.98” for “126.24”; type: functional; conditions: time 21 day
[34] = Toxicity in collagen/CFA induced arthritis DBA/1 mouse model assessed as body weight at 1 mg/kg, po administered via gavage starting from day 21 to day 41 post collagen/CFA challenge and measured on day 21 relative to initial weight (reference value: 94.96%); type: organism-based; conditions: in vivo, 504 h, time 21 day
Mus musculus [35] = experiment: as §1, with “IP-10” for “MCP-1”, “6.23” for “126.24”; type: functional; conditions: time 21 day
Mus musculus [36] = experiment: as §1, with “IL-2” for “MCP-1”, “0.2” for “126.24”; type: functional; conditions: time 21 day
Mus musculus [37] = experiment: as §1, with “IFN-gamma” for “MCP-1”, “0.78” for “126.24”; type: functional; conditions: time 21 day
Mus musculus [38] = experiment: Antiarthritic activity in collagen/complete freund's adjuvant-induced arthritis DBA/1 mouse model assessed as paw thickness at 1 mg/kg, po administered via gavage starting from day 21 to day 41 post collagen/CFA challenge and measured on day 21 by caliper analysis (reference value: 2.48 millimeter); type: functional; conditions: time 21 day
Mus musculus [39] = experiment: as §1, with “IL-6” for “MCP-1”, “180.7” for “126.24”; type: functional; conditions: time 21 day

Row | Structure (SMILES) | Kd [1] | Activity (Kasumi 1 [2]) | Activity (Kasumi 1 [3]) | concentration at 600 h [4] | half-life [6] | Cmax [7] | clearance [8] | Activity (Kasumi 1 [9]) | IC50 (MV4-11) | half-life [14] | AUC(0-inf) [15] | Vd [16] | Activity (Kasumi 1 [20]) | IC50 [23] | Activity (Kasumi 1 [24]) | Activity (Kasumi 1 [25]) | inhibition in vivo at 10 mg/kg (Kasumi 1 [26]) | AUC(0-inf) [19] | bioavailability [27] | Cmax ([22]; CD-1, mouse, read-out: Cmax) | further results
1 | Cc1noc(C)c1-c1ccc2nc(-c3cnn(CC(C)(C)O)c3)nc(N3CCOC[C@@H]3C3CC3)c2c1 | 230 nM | 1001 mm3 | 1.31 g | 4210 ng/g | 90 min | 2040 ng/mL | 10.1 mL/min/kg | 0.03 g | 1660 nM | 108 min | 3370 ng·h/mL | 1.28 L/kg | 51 mm3 | 76 nM | – | – | – | – | – | – | Activity [5]: Non-Toxic; concentration at 600 h [10]: 303 ng/g; inhibition in vivo at 40 mg/kg (Kasumi 1 [11]): 98.8%; inhibition in vivo at 10 mg/kg (Kasumi 1 [12]): 49.1%; IC50 (Kasumi 1 [13]): 520 nM; t1/2 [17]: 102 min; half-life [18]: 106 min; AUC ([19]; mouse): 15013 ng·h/mL; half-life [21]: 33 min; Cmax ([22]; mouse, 5 min): 1940 ng/mL
2 | Cc1cc(-c2ccc3nc(-c4cnn(CC(C)(C)O)c4)nc(N4CCOC[C@@H]4c4ccccc4)c3c2)cn(C)c1=O | 23 nM | – | – | – | 126 min | 2870 ng/mL | 3.8 mL/min/kg | – | 240 nM | 162 min | 9330 ng·h/mL | 0.89 L/kg | – | 11 nM | 0.73 g | 588 mm3 | 65.1% | 39800 ng·h/mL | 85% | 2450 ng/mL | –
3 | CCNC(=O)C[C@@H]1N=C(c2ccc(Cl)cc2)c2cc(OC)ccc2-n2c(C)nnc21 [MOLIBRESIB] | – | 586 mm3 | 0.52 g | 16 ng/g | – | – | – | 0.07 g | – | – | – | – | 79 mm3 | – | 0.3 g | 330 mm3 | – | – | – | – | Activity [28]: Toxic
4 | Cc1cc(-c2ccc3nc(-c4cnn(CC(C)(C)O)c4)nc(N4CCOC[C@@H]4c4ccc(F)cc4)c3c2)cn(C)c1=O | 20 nM | – | – | – | 156 min | 3180 ng/mL | 4.5 mL/min/kg | – | – | 252 min | 7400 ng·h/mL | 1.08 L/kg | – | 6 nM | 1.24 g | 977 mm3 | 41% | 45700 ng·h/mL | 123% | 2260 ng/mL | –
5 | C[C@@H]1C[C@H]2[C@@H]3CCC4=CC(=O)C=C[C@]4(C)[C@@]3(F)[C@@H](O)C[C@]2(C)[C@@]1(O)C(=O)CO [DEXAMETHASONE] | – | – | – | – | – | – | – | – | – | – | – | – | – | – | – | – | – | – | – | – | Activity (Mus musculus [29]): 1.99 pg; Activity [30]: Toxic; Activity (Mus musculus [31]): 2.32 pg; Activity (Mus musculus [32]): 0.39 pg; Activity (Mus musculus [33]): 0.85 pg; Activity [34]: 92.74%; Activity (Mus musculus [35]): 0.86 pg; Activity (Mus musculus [36]): 0.63 pg; Activity (Mus musculus [37]): 1.5 pg; Activity (Mus musculus [38]): 1.53 mm; Activity (Mus musculus [39]): 2.17 pg
